Like-named read-outs stand apart in the source and are kept apart here.
Tests used:
Experiment in all cases: KINOMEscan ScanTK
Type in all cases: binding
[1] = molecular target: T1, KIT(D816V) (Homo sapiens, UniProt P10721, D816V)
T1 construct: purchased Eurofins DiscoverX KINOMEscan (scanTK)

[2] = molecular target: T2, BMX (Homo sapiens, UniProt P51813)
T2 construct: purchased Eurofins DiscoverX KINOMEscan (scanTK)
T2 sequence (P51813 1-675): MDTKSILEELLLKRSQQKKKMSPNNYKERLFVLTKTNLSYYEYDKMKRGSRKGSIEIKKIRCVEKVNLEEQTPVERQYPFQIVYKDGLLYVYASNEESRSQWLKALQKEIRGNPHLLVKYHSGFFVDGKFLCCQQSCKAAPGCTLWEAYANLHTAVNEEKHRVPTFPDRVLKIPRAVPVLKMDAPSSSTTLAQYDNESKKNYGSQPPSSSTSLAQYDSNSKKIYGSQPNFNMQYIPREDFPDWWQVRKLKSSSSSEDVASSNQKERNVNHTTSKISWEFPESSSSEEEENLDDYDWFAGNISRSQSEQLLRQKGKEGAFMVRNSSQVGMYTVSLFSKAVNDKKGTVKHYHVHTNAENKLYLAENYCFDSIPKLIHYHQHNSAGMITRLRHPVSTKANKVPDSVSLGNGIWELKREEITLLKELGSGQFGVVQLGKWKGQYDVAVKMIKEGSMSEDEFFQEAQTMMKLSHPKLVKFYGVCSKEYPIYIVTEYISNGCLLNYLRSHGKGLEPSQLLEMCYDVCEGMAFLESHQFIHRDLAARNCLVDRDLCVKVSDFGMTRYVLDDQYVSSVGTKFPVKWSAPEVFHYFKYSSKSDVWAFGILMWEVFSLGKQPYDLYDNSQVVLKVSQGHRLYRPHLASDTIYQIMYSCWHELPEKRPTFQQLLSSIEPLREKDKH

[3] = molecular target: T3, EPHB4 (Homo sapiens, UniProt P54760)
T3 construct: purchased Eurofins DiscoverX KINOMEscan (scanTK)
T3 sequence (P54760 16-987): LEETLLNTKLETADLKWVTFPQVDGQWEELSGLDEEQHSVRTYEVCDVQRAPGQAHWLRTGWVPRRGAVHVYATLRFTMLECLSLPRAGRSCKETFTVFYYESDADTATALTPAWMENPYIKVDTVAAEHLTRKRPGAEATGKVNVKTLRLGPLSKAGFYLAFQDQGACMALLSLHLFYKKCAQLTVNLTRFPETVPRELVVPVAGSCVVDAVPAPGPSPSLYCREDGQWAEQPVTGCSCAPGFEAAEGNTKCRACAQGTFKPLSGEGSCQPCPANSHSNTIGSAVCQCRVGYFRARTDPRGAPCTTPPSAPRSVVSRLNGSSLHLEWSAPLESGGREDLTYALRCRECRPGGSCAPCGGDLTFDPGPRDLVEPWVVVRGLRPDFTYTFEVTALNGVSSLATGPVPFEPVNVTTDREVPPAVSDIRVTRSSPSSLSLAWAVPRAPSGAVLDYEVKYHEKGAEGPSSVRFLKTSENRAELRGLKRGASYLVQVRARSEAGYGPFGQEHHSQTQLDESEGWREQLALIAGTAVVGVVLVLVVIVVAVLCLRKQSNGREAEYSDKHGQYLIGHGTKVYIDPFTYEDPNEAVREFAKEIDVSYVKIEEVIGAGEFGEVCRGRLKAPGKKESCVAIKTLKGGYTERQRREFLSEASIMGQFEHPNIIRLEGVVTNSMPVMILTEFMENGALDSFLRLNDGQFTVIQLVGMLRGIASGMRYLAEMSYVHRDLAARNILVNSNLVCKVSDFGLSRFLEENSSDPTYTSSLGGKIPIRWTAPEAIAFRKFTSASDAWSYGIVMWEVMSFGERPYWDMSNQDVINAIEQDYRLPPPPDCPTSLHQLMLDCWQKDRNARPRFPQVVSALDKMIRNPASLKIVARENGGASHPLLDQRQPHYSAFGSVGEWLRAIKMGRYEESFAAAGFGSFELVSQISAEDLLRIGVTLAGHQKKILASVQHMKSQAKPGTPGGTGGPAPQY

[4] = molecular target: T4, SYK (Homo sapiens, UniProt P43405)
T4 construct: purchased Eurofins DiscoverX KINOMEscan (scanTK)

[5] = molecular target: T5, MST1R (Homo sapiens, UniProt Q04912)
T5 construct: purchased Eurofins DiscoverX KINOMEscan (scanTK)
T5 sequence (Q04912 25-1400): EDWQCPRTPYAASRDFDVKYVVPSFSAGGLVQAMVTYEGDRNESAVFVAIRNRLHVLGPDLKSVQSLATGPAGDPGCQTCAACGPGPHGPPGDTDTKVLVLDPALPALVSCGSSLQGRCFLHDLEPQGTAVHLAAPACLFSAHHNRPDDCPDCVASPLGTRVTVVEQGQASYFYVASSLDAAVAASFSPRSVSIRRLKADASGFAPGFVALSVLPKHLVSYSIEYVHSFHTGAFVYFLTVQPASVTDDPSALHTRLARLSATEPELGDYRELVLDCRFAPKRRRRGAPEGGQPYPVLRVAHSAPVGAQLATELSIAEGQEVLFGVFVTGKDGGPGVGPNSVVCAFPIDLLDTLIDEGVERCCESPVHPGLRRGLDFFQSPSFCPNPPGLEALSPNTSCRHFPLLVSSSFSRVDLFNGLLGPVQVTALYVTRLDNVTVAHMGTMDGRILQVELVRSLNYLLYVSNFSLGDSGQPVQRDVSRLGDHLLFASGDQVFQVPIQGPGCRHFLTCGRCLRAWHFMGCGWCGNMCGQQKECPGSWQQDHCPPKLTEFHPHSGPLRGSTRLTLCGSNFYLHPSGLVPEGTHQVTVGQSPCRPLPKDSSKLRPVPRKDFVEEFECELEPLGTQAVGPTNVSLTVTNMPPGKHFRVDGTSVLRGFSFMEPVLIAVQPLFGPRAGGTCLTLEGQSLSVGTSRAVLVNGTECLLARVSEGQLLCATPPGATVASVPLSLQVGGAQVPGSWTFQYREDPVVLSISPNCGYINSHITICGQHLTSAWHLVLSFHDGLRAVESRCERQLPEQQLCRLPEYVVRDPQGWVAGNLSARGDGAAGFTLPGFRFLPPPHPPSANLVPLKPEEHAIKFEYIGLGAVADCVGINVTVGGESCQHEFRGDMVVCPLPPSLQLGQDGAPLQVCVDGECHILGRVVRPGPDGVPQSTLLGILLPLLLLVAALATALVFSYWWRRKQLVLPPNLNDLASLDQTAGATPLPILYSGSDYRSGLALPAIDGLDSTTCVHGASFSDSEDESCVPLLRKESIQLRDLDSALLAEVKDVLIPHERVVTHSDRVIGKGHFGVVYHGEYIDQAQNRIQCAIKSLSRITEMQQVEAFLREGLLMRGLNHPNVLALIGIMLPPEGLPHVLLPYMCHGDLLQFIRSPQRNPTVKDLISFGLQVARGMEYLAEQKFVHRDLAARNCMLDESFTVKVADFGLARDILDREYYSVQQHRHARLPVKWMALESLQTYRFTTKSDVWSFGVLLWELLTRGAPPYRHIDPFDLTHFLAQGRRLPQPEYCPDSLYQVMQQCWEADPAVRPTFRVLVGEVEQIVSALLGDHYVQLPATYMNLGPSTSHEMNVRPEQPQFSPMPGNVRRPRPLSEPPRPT

[6] = molecular target: T6, ABL1-nonphosphorylated (Homo sapiens, UniProt P00519)
T6 construct: purchased Eurofins DiscoverX KINOMEscan (scanTK)
T6 sequence (P00519 whole entry): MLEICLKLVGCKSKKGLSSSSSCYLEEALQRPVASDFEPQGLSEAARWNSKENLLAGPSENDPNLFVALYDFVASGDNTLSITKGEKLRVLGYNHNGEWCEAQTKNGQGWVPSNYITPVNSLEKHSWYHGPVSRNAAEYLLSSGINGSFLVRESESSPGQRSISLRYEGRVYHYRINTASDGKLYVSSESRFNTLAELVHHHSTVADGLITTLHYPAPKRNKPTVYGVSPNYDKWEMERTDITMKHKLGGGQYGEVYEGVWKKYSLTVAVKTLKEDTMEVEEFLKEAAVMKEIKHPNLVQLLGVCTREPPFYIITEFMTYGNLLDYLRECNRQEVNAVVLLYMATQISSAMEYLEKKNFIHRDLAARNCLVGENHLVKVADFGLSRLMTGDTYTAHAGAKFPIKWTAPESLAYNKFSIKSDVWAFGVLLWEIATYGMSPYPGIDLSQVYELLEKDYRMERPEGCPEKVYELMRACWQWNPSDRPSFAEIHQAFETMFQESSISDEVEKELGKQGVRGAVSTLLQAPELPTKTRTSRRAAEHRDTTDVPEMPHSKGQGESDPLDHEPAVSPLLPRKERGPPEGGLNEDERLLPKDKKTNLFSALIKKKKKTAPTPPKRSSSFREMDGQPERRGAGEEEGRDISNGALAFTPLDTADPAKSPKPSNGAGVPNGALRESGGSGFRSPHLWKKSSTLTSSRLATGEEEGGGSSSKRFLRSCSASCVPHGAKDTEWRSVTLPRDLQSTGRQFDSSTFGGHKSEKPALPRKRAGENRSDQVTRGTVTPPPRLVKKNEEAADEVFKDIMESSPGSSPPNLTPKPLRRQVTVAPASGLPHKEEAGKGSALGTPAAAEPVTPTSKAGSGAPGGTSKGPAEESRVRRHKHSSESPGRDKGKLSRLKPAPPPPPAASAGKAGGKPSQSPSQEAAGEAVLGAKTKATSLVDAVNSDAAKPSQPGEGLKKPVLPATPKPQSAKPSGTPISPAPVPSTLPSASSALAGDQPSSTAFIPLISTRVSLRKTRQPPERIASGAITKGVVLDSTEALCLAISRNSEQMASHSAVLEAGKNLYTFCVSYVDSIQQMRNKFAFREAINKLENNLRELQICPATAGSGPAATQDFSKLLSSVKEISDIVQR

[7] = molecular target: T7, EGFR(L747-E749del, A750P) (Homo sapiens, UniProt P00533, A750P/DEL747-749)
T7 construct: purchased Eurofins DiscoverX KINOMEscan (scanTK)
T7 sequence (P00533 with tags, fused parts or gaps DEL747-749/A750P limits assumed): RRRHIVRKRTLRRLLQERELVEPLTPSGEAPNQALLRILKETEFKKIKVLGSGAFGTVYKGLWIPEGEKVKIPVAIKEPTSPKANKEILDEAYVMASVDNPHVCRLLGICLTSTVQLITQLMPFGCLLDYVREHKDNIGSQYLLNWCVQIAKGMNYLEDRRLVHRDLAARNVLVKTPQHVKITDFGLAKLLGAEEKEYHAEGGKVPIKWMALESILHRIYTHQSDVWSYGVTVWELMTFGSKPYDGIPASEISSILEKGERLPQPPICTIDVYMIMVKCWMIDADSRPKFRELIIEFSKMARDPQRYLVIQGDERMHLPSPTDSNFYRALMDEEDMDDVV

[8] = molecular target: T8, EGFR(T790M) (Homo sapiens, UniProt P00533, T790M)
T8 construct: purchased Eurofins DiscoverX KINOMEscan (scanTK)
T8 sequence (P00533 25-1210 T790M): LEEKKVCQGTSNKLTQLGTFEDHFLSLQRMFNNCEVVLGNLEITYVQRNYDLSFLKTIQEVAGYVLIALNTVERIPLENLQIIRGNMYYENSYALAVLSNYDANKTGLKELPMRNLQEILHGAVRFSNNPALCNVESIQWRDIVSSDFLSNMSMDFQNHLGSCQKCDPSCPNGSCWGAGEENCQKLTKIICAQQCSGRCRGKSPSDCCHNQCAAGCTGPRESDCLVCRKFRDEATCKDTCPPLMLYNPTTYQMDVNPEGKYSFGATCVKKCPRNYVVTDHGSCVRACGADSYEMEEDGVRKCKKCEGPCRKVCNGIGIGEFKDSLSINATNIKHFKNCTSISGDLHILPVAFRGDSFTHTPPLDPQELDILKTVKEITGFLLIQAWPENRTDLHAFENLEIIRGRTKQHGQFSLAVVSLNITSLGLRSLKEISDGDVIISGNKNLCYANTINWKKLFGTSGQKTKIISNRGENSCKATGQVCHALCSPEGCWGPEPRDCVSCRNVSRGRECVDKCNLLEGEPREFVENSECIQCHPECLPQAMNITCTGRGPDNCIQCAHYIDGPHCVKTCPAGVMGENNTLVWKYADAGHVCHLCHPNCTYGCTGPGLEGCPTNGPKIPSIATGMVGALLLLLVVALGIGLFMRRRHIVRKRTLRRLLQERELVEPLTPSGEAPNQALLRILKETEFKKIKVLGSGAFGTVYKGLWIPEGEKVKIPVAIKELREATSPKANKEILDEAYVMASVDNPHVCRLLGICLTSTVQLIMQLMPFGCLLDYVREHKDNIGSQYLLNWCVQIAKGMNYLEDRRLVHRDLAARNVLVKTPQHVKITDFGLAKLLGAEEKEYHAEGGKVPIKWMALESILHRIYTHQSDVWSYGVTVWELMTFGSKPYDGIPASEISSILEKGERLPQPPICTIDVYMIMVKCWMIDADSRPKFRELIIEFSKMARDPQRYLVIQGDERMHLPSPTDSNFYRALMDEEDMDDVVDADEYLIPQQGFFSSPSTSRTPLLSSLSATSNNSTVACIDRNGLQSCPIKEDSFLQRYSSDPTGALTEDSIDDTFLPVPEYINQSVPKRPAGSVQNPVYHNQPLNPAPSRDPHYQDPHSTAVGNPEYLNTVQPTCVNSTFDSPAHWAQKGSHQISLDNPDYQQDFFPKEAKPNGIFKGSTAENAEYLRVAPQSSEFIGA

T1 sequence (P10721 26-976 D816V): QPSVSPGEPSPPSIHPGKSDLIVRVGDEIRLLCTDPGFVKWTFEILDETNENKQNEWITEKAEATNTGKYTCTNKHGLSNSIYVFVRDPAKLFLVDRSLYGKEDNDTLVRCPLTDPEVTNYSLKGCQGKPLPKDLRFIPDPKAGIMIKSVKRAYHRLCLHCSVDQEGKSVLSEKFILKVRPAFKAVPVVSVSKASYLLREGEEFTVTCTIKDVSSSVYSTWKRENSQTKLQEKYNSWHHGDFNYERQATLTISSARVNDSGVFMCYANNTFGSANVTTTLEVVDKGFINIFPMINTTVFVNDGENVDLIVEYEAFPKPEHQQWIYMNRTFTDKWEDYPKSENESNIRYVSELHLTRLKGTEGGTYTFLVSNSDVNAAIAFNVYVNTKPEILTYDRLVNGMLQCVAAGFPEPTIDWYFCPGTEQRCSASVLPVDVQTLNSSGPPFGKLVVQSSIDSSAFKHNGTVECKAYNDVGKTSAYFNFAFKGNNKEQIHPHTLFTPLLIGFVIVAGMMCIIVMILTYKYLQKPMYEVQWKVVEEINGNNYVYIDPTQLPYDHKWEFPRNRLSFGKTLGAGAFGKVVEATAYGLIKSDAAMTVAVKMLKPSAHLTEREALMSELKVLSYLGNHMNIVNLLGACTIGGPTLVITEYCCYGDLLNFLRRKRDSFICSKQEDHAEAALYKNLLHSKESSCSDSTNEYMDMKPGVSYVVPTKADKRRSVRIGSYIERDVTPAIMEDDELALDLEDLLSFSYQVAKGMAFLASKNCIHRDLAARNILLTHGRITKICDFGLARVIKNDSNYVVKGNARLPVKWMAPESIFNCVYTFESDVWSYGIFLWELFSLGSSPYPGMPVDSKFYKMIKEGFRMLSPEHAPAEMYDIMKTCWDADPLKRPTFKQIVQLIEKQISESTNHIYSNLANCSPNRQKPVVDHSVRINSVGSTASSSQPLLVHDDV

remaining binding at 1 µM ([1]; @1000nM, read-out: %Control) [%]	remaining binding at 1 µM ([1]; read-out: %Control @1000nM) [%]	difference in %Control versus compound Ib at 1 µM ([2]; @1000nM) [%]	remaining binding at 1 µM ([2]; @1000nM, read-out: %Control) [%]	remaining binding at 1 µM ([2]; read-out: %Control @1000nM) [%]	difference in %Control from compound Ib at 1 µM ([3]; @1000nM) [%]	remaining binding at 1 µM ([3]; @1000nM, read-out: %Control) [%]	remaining binding at 1 µM ([3]; read-out: %Control @1000nM) [%]	difference in %Control versus compound Ib at 1 µM ([4]; @1000nM) [%]	remaining binding at 1 µM ([4]; @1000nM, read-out: %Control) [%]	remaining binding at 1 µM ([4]; read-out: %Control @1000nM) [%]	remaining binding at 1 µM ([5]; @1000nM, read-out: %Control) [%]	remaining binding at 1 µM ([5]; read-out: %Control @1000nM) [%]	difference in %Control from reference compound Ib at 1 µM ([6]; @1000nM) [%]	remaining binding at 1 µM ([6]; @1000nM, read-out: %Control) [%]	remaining binding at 1 µM ([6]; read-out: %Control @1000nM) [%]	difference in %Control versus compound Ib at 1 µM ([7]; @1000nM) [%]	remaining binding at 1 µM ([7]; @1000nM, read-out: %Control) [%]	remaining binding at 1 µM ([7]; read-out: %Control @1000nM) [%]	difference in % of control versus compound Ib at 1 µM ([8]; @1000nM) [%]	Structure (SMILES)	other results
85	85	28	69	69	-14	86	86	9	100	100	98	98	36.5	45	45	63.9	67	67	72.5	CCOC(=O)c1cnc(S(C)(=O)=O)nc1N1CCC[C@@H](n2nc(-c3ccc(Oc4ccccc4)cc3)c3c(N)ncnc32)C1 [Compound 8c, Ethyl (R)-4-(3-(4-Amino-3-(4-phenoxyphenyl)-1H-pyrazolo[3,4-d]pyrimidin-1-yl)piperidin-1-yl)-2-(methylsulfonyl)pyrimidine-5-carboxylate]	remaining binding at 1 µM ([8]; @1000nM, read-out: %Control): 73%; remaining binding at 1 µM ([8]; read-out: %Control @1000nM): 73%
74	74	-3	38	38	0	100	100	-7	84	84	100	100	38.5	47	47	79.9	83	83	69.5	Cc1cnc(S(C)(=O)=O)nc1N1CCCC(n2nc(-c3ccc(Oc4ccccc4)cc3)c3c(N)ncnc32)C1 (stereo not shown) [Compound 8a, 1-(1-(5-Methyl-2-(methylsulfonyl)pyrimidin-4-yl)piperidin-3-yl)-3-(4-phenoxyphenyl)-1H-pyrazolo[3,4-d]pyrimidin-4-amine]	remaining binding at 1 µM ([8]; @1000nM, read-out: %Control): 70%; remaining binding at 1 µM ([8]; read-out: %Control @1000nM): 70%
85	85	12	53	53	-2	98	98	-13	78	78	96	96	56.5	65	65	69.9	73	73	41.5	COC(=O)c1cnc(S(C)(=O)=O)nc1N1CCCC(n2nc(-c3ccc(Oc4ccccc4)cc3)c3c(N)ncnc32)C1 (stereo not shown) [Compound 8b, Methyl 4-(3-(4-Amino-3-(4-phenoxyphenyl)-1H-pyrazolo[3,4-d]pyrimidin-1-yl)piperidin-1-yl)-2-(methylsulfonyl)pyrimidine-5-carboxylate]	remaining binding at 1 µM ([8]; @1000nM, read-out: %Control): 42%; remaining binding at 1 µM ([8]; read-out: %Control @1000nM): 42%

Second part, the compound before the results:

Structure (SMILES)	remaining binding at 1 µM ([1]; @1000nM, read-out: %Control) [%]	remaining binding at 1 µM ([1]; read-out: %Control @1000nM) [%]	difference in %Control versus compound Ib at 1 µM ([2]; @1000nM) [%]	remaining binding at 1 µM ([2]; @1000nM, read-out: %Control) [%]	remaining binding at 1 µM ([2]; read-out: %Control @1000nM) [%]	difference in %Control from compound Ib at 1 µM ([3]; @1000nM) [%]	remaining binding at 1 µM ([3]; @1000nM, read-out: %Control) [%]	remaining binding at 1 µM ([3]; read-out: %Control @1000nM) [%]	difference in %Control versus compound Ib at 1 µM ([4]; @1000nM) [%]	remaining binding at 1 µM ([4]; @1000nM, read-out: %Control) [%]	remaining binding at 1 µM ([4]; read-out: %Control @1000nM) [%]	remaining binding at 1 µM ([5]; @1000nM, read-out: %Control) [%]	remaining binding at 1 µM ([5]; read-out: %Control @1000nM) [%]	difference in %Control from reference compound Ib at 1 µM ([6]; @1000nM) [%]	remaining binding at 1 µM ([6]; @1000nM, read-out: %Control) [%]	remaining binding at 1 µM ([6]; read-out: %Control @1000nM) [%]	difference in %Control versus compound Ib at 1 µM ([7]; @1000nM) [%]	remaining binding at 1 µM ([7]; @1000nM, read-out: %Control) [%]	remaining binding at 1 µM ([7]; read-out: %Control @1000nM) [%]	difference in % of control versus compound Ib at 1 µM ([8]; @1000nM) [%]	other results
CNC(=O)c1cnc(S(C)(=O)=O)nc1N1CCCC(n2nc(-c3ccc(Oc4ccccc4)cc3)c3c(N)ncnc32)C1 (stereo not shown) [Compound 8d, 4-(3-(4-Amino-3-(4-phenoxyphenyl)-1H-pyrazolo[3,4-d]pyrimidin-1-yl)piperidin-1-yl)-N-methyl-2-(methylsulfonyl)pyrimidine-5-carboxamide]	84	84	20	61	61	0	100	100	-2	89	89	100	100	24.5	33	33	48.9	52	52	18.6	remaining binding at 1 µM ([8]; @1000nM, read-out: %Control): 19%; remaining binding at 1 µM ([8]; read-out: %Control @1000nM): 19%
C=CC(=O)N1CCC[C@@H](n2nc(-c3ccc(Oc4ccccc4)cc3)c3c(N)ncnc32)C1 [Compound 1g, Ibrutinib, reference compound]	86	86					100	100		91	91										

Reference: paper PMC11345841, “Exploring 2-Sulfonylpyrimidine Warheads as Acrylamide Surrogates for Targeted Covalent Inhibition: A BTK Story” (Journal of Medicinal Chemistry, 2024)
